Data on 5 compounds can be found in patent US8575199B2, “Formula (IA″) compounds comprising (piperidin-4-yl)pyridine or (1,2,3,6-tetrahydropyridin-4-4yl) as TRPV1 antagonists” (Purdue Pharma L.P., priority 2007, dated 2013).

Broadly, the IC50 is the concentration needed to halve the response being measured. As a reminder, the solubility is how much of the substance goes into solution per volume.

Values after ≈ are worked out from the molar mass of the structure shown. Read-outs that look alike come from different tables or passages of the source.

The target in one data set is T1, human recombinant TRPV1 (Homo sapiens, UniProt Q8NER1).
T1 construct: using primers designed surrounding the complete hTRPV1 open reading frame; expressed in transfected cells; host or cells: CHO-K1 cells stably transfected with pcDNA3.1(-)-hVR1 plasmid
As to the kind of experiment: pH-based assay, Protocol 2 (hpH-CHO), Ca2+ influx by Fura-2 AM/FDSS-3000 in TRPV1/CHO cells. Type of data set: cell-based. As to conditions: H2SO4 agonist, pH 5.0-5.1, mean ± standard error of the mean (number of trials), read-out: TRPV1 IC50 Potency, Human pH CHO (hpH-CHO). The source says:
For Protocol 2, a Chinese Hamster Ovary cell line (CHO) that has been engineered to constitutively express human recombinant TRPV1 was used (TRPV1/CHO cells). The TRPV1/CHO cell line was generated as described below.
The resulting PCR products were purified from agarose gels using Gel Band Purification Kit (GE Healthcare Bioscience) and were subcloned into pCR-Blunt vector (Invitrogen). The cloned cDNA was fully sequenced using a fluorescent dye-terminator reagent (BigDye Terminator ver3.1 Cycle Sequencing Kit, Applied Biosystems) and ABI Prism 3100 genetic analyzer (Applied Biosystems). The pCR-Blunt vector containing the hTRPV1 cDNA was subjected to restriction digestion with EcoR1. […] The sequence of the cDNA encoding TRPV1 is available at GenBank accession number AJ277028. […]
(5) The Fura-2 fluorescent intensity was monitored at a wavelength of 340 nm and at 380 nm, respectively, at a rate of 0.5 Hz for a total of 240 seconds. […]
(6) Fluorescence intensity ratio refers to the fluorescence intensity at 340 nm over the fluorescence intensity at 380 nm at a particular time point. […]
(7) Maximal signal ratios from each well were calculated as output data using the FDSS-3000 analysis program. Data were analyzed using Excel (Microsoft) and XLfit (idbs) software.

Data set [1] is described as follows: Aqueous solubility at pH 6.8 or pH 1.2. Type of data set: physicochemical. Conditions: aqueous solution.
Where [2] appears, read: pH 1.2, simulated gastric fluid, read-out: aqueous solubility at pH 1.2.
The mark [3] stands for this setting: pH 6.8, aqueous buffer, read-out: aqueous solubility at pH 6.8.

T1 sequence (Q8NER1 whole entry): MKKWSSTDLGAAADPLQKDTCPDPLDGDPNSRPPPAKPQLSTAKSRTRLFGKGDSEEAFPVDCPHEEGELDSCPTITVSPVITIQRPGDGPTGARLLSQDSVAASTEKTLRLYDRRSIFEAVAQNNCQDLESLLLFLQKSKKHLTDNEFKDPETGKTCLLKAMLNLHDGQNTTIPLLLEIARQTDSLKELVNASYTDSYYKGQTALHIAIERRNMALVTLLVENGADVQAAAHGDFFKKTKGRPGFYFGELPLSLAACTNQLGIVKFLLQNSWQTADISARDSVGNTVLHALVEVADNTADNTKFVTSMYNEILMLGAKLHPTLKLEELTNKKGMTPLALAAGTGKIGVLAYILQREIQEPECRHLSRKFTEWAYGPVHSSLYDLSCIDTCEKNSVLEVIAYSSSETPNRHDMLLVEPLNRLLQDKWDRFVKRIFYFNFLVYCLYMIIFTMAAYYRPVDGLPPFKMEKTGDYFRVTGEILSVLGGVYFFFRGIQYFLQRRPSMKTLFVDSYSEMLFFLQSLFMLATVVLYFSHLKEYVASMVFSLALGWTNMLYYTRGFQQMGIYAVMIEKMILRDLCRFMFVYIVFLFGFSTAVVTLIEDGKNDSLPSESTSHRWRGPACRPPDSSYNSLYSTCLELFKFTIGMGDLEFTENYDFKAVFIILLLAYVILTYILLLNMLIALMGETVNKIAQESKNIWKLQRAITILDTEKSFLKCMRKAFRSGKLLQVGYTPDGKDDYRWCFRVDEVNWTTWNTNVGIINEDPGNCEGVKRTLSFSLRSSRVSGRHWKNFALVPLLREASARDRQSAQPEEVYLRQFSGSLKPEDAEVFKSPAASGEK

With `O=C(Nc1ccc(C(F)(F)F)c(Cl)c1)N1CCC(F)(c2ncc([C@H](O)CO)cc2F)CC1` [Compound Q3], the IC50 on human recombinant TRPV1 worked out at 5.3 ± 1 nM.

On to `O=C(Nc1ccc(C(F)(F)F)c(Cl)c1)N1CC=C(c2ncccc2F)CC1` [Compound 215], for which the solubility was 9.6 µM (≈ 3.84 µg/mL) in data set [1] (setting [2]) and 0.6 µM (≈ 0.24 µg/mL) in data set [1] (setting [3]). Regarding `O=C(Nc1ccc(OC(F)(F)F)c(-c2ccccc2)c1)N1CC=C(c2ncc(CO)cc2Cl)CC1` [Compound D3], the half-inhibitory concentration (IC50) on human recombinant TRPV1 turned out to be 39.8 ± 2.2 nM. Regarding `O=C(Nc1ccc(C(F)(F)F)c(F)c1)N1CC=C(c2ncccc2Cl)CC1` [Compound 213], the solubility in data set [1] (setting [2]) is 39.6 µM (≈ 15.8 µg/mL); in data set [1] (setting [3]), 0.8 µM (≈ 0.32 µg/mL). For `O=C(Nc1ccc(C(F)(F)F)c(F)c1)N1CCC(F)(c2ncccc2Cl)CC1` [Compound 209], the results for the solubility in data set [1] (setting [2]) and in data set [1] (setting [3]) were 9.3 µM (≈ 3.9 µg/mL) and 1 µM (≈ 0.42 µg/mL), respectively.
